# Results as given in patent US8476197B2, “Aminopropenoates as fungicides” (priority 2009, dated 2013).
# Marks after values point to notes of the source that are not given here.
# Settings: pH 2.3
row,Log P,SMILES
1,2.03^[c]; 2.03^[b],C=CCOc1ncccc1C(NC(C)c1nccs1)=C(C#N)C(=O)OCC (racemic) [Compound 1506]
2,1.57^[c]; 1.57^[b],COC(=O)C(C#N)=C(NCc1ncccn1)c1cccnc1Cl [Compound 13]
3,1.79,COC(=O)C(C#N)=C(NCC1OCCO1)c1cccnc1Cl [Compound 14]
4,2.66,COC(=O)C(C#N)=C(NC(C)c1nccs1)c1sc(C)nc1C(F)(F)F (stereo not shown) [Compound 17]
5,2.61,COC(=O)C(C#N)=C(NC(C)c1nccs1)c1sccc1Cl (stereo not shown) [Compound 18]
6,2.63,COC(=O)C(C#N)=C(NCC1CCCS1)c1cccnc1Cl (stereo not shown) [Compound 20]

row,SMILES,Log P
1,COC(=O)C(C#N)=C(NC1CCSC1)c1cccnc1Cl (stereo not shown) [Compound 22],2.4

# Same assay, conditions: pH 2.7
row,Log P,SMILES
1,3.83^[a],CCOC(=O)C(C#N)=C(NC(C#N)c1ccc(Cl)cc1Cl)c1cccnc1Cl (racemic) [Compound 1267]
2,2.7^[a],CCNC(=O)C(C#N)=C(NC(C)c1ccccn1)c1ccnc(C)c1Cl (racemic) [Compound 1277]
3,1.96^[a],COCCNC(=O)C(C#N)=C(NC(C)c1nccs1)c1cn(C)nc1C(F)F (racemic) [Compound 1287]
4,1.75^[a],COCCNC(=O)C(C#N)=C(NC(C)c1ccccn1)c1cn(C)nc1C(F)F (racemic) [Compound 1288]
5,3.44^[a],CC#CC(C)NC(=C(C#N)C(=O)OCC)c1ccnc(Cl)c1Cl (racemic) [Compound 1386]
6,3.33^[a],CCOC(=O)C(C#N)=C(NC(C)c1ncc(C)s1)c1ccnc(Cl)c1Cl (racemic) [Compound 1389]
7,3.99^[a],CCCC(C)NC(=C(C#N)C(=O)OCC)c1ccnc(Cl)c1Cl (racemic) [Compound 1390]
8,3.09^[a],CCOC(=O)C(C#N)=C(NC(C)c1ccccn1)c1ccnc(Br)c1Cl (racemic) [Compound 1391]
9,3.35^[a],CCOC(=O)C(C#N)=C(NC(C)c1ccccn1)c1ccnc(SC)c1Cl (racemic) [Compound 1393]
10,3^[a],CCOC(=O)C(C#N)=C(NC(C)c1ccccn1)c1ccnc(Br)c1F (racemic) [Compound 1395]
11,2.96^[a],CCOC(=O)C(C#N)=C(NC(C)c1ccccn1)c1ccnc(CC)c1Cl (racemic) [Compound 1396]
12,3.29^[a],CCCc1nccc(C(NC(C)c2ccccn2)=C(C#N)C(=O)OCC)c1Cl (racemic) [Compound 1397]
13,3.33^[a],CCOC(=O)C(C#N)=C(NC(C)c1ccccn1)c1ccnc(-c2ccccc2)c1Cl (racemic) [Compound 1398]
14,1.89^[a],C#CCNC(=O)C(C#N)=C(NC(C)c1ccccn1)c1cn(C)nc1C(F)F (racemic) [Compound 1407]
15,3.11^[a],CCOC(=O)C(C#N)=C(NC(C)c1ccccn1)c1ccnc(Br)c1Br (racemic) [Compound 1409]
16,2.55^[a],CCNC(=O)C(C#N)=C(NC(C)c1ccccn1)c1ccnc(Cl)c1Br (racemic) [Compound 1411]
17,2.13^[a],CCOC(=O)C(C#N)=C(NC(C)c1cnccn1)c1cccnc1Cl (racemic) [Compound 1415]
18,2.94^[a],CCOC(=O)C(C#N)=C(NC(C)C(C)OC)c1scnc1Cl (racemic) [Compound 1480]
19,3.92^[a],CCOC(=O)C(C#N)=C(NC(C)C(C)CC)c1scnc1Cl (racemic) [Compound 1481]
20,2.42^[a],CCOC(=O)C(C#N)=C(NC(C)c1nccs1)c1cnn(C)c1Cl (racemic) [Compound 1483]

row,Log P,SMILES
1,2.35^[a],CCOC(=O)C(C#N)=C(NC(C)c1ccccn1)c1cnn(C)c1Cl (racemic) [Compound 1484]
2,2.5^[a],CCOC(=O)C(C#N)=C(NC(C)c1ccccn1)c1ccnc2ccccc12 (racemic) [Compound 1497]
3,3.02^[a],CCOC(=O)C(C#N)=C(NC(C)C1CC1)c1ccnc2ccccc12 (racemic) [Compound 1500]
4,2.28^[a],CCOC(=O)C(C#N)=C(NC(c1cncnc1C)C(C)C)c1cccnc1Cl (racemic) [Compound 1538]
5,3.21^[a],CCOC(=O)C(C#N)=C(NC(C)c1nc2c(s1)CCCC2)c1cccnc1Cl (racemic) [Compound 1548]
6,2.84^[a],CCOC(=O)C(C#N)=C(NC(C)c1nc(C)sc1C)c1cccnc1Cl (racemic) [Compound 1552]
7,3.55^[a],CCOC(=O)C(C#N)=C(NC(c1cncnc1C(F)(F)F)C(C)C)c1cccnc1Cl (racemic) [Compound 1557]
8,4.13^[a],CCOC(=O)C(C#N)=C(NC(C)c1cc(Cl)ccc1Cl)c1cccnc1Cl (racemic) [Compound 1558]
9,3.23^[a],CCOC(=O)C(C#N)=C(NC(C)C1CC1)c1cn(C)nc1C(Cl)Cl (racemic) [Compound 1560]
10,3.67^[a],CCOC(=O)C(C#N)=C(NC(C)C1CCC1)c1cn(C)nc1C(Cl)Cl (racemic) [Compound 1561]
11,2.7^[a],CCOC(=O)C(C#N)=C(NC(C)c1ccccn1)c1cn(C)nc1C(Cl)Cl (racemic) [Compound 1565]
12,3.44^[a],"CCOC(=O)C(C#N)=C(NC(C)c1nc(C)cs1)c1sccc1Br (single isomer, unassigned) [Compound 167]"
13,4.4^[a],CCOC(=O)C(C#N)=C(NC(C)c1cccc2ccccc12)c1nc(Cl)ccc1Cl (stereo not shown) [Compound 1]
14,4.65^[a],CCOC(=O)C(C#N)=C(NC(C)c1cccc2ccccc12)c1ncc(Cl)cc1Cl (stereo not shown) [Compound 2]
15,4.4^[a],CCOC(=O)C(C#N)=C(NC(C)c1cccc2ccccc12)c1cnc(Cl)cc1Cl (stereo not shown) [Compound 3]
16,2.78,COC(=O)C(C#N)=C(NC(C)c1nccs1)c1sc(C)nc1C(F)(F)F (stereo not shown) [Compound 17]
17,1.91^[a],CCOC(=O)C(C#N)=C(NCc1ccccn1)c1c(C)nn(C)c1F [Compound 39]
18,2.98^[a],CCOC(=O)C(C#N)=C(NCc1ccccn1)c1ncc(C(F)(F)F)cc1Cl [Compound 42]
19,1.72^[a],COC(=O)C(C#N)=C(NCc1nccs1)c1cn(C)nc1C(F)F [Compound 67]

row,SMILES,Log P
1,CCOC(=O)C(C#N)=C(NC(Cc1ncccc1C)C(F)(F)F)c1cccnc1Cl (racemic) [Compound 1262],3.04^[a]
2,CCOC(=O)C(C#N)=C(NC(C)C(=O)CC)c1cccnc1Cl (racemic) [Compound 1270],2.64^[a]
3,CC(NC(=C(C#N)C(=O)NC1CC1)c1cn(C)nc1C(F)F)c1nccs1 (racemic) [Compound 1279],2.04^[a]
4,CC(NC(=C(C#N)C(=O)NC1CC1)c1cn(C)nc1C(F)F)c1ccccn1 (racemic) [Compound 1280],1.84^[a]
5,C=CCNC(=O)C(C#N)=C(NC(C)c1ccccn1)c1cn(C)nc1C(F)F (racemic) [Compound 1291],2.02^[a]
6,C=CCNC(=O)C(C#N)=C(NC(C)c1nccs1)c1cn(C)nc1C(F)F (racemic) [Compound 1292],2.2^[a]
7,CCNC(=O)C(C#N)=C(NC(C)c1ccccn1)c1cn(C)nc1C(F)F (racemic) [Compound 1293],1.86^[a]
8,CCNC(=O)C(C#N)=C(NC(C)c1nccs1)c1cn(C)nc1C(F)F (racemic) [Compound 1294],2.05^[a]
9,CCOC(=O)C(C#N)=C(NC(C)c1ccccn1)c1ccncc1C(F)(F)F (racemic) [Compound 1394],2.7^[a]
10,CCOC(=O)C(C#N)=C(NC(C)c1ccccn1)c1ccnc(Cl)c1Br (racemic) [Compound 1404],3.06^[a]
11,CCOC(=O)C(C#N)=C(NC(C)c1nccs1)c1ccnc(Cl)c1Br (racemic) [Compound 1406],2.96^[a]
12,CCOC(=O)C(C#N)=C(NC(c1ccccn1)C(F)(F)F)c1cccnc1Cl (racemic) [Compound 1549],3.17^[a]
13,CC(NC(=C(C#N)C(=O)NCCF)c1cccnc1Cl)c1nccs1 (racemic) [Compound 1563],2^[a]
14,CCOC(=O)C(C#N)=C(NC(C)c1nccs1)c1cccnc1Cl (stereo not shown) [Compound 6],2.58
15,CCOC(=O)C(C#N)=C(NCc1ccccn1)c1cn(C)nc1C(F)F [Compound 32],1.94^[a]
16,COC(=O)C(C#N)=C(NCc1ccccn1)c1cn(C)nc1C(F)F [Compound 58],1.63^[a]
17,CCOC(=O)C(C#N)=C(NC(C)c1nc(C)c(C)s1)c1cn(C)nc1C(F)(F)F (stereo not shown) [Compound 64],3.48^[a]
18,CCOC(=O)C(C#N)=C(NC(C)Cc1c[nH]c2ccccc12)c1cn(C)nc1C(F)(F)F (stereo not shown) [Compound 65],3.73^[a]
19,CCOC(=O)C(C#N)=C(NCc1nccs1)c1cccnc1Cl [Compound 66],2.07^[a]

# Same assay, conditions: pH 7.5
row,Log P,SMILES
1,2.03^[c]; 2.03^[b],C=CCOc1ncccc1C(NC(C)c1nccs1)=C(C#N)C(=O)OCC (racemic) [Compound 1506]
2,2.4,CCOCCOC(=O)C(C#N)=C(NC(C)c1nccs1)c1cccnc1Cl (stereo not shown) [Compound 12]
3,1.57^[c]; 1.57^[b],COC(=O)C(C#N)=C(NCc1ncccn1)c1cccnc1Cl [Compound 13]
4,1.77,COC(=O)C(C#N)=C(NCC1OCCO1)c1cccnc1Cl [Compound 14]
5,2.03,COC(=O)C(C#N)=C(NCC1CCCO1)c1cccnc1Cl (stereo not shown) [Compound 16]
6,2.63,COC(=O)C(C#N)=C(NC(C)c1nccs1)c1sc(C)nc1C(F)(F)F (stereo not shown) [Compound 17]
7,2.59,COC(=O)C(C#N)=C(NC(C)c1nccs1)c1sccc1Cl (stereo not shown) [Compound 18]
8,2.69,COC(=O)C(C#N)=C(NC(C)c1nc(C)c(C)s1)c1cccnc1Cl (stereo not shown) [Compound 19]
9,2.47,COC(=O)C(C#N)=C(NCC1CCCS1)c1cccnc1Cl (stereo not shown) [Compound 20]
10,3.07,CC(NC(=C(C#N)C(=O)OC(C)(C)C)c1cccnc1Cl)c1nccs1 (stereo not shown) [Compound 25]
11,2.17,COC(=O)C(C#N)=C(NC(C)c1sc(C)nc1C)c1cccnc1Cl (stereo not shown) [Compound 26]
12,3.13,CC(C)COC(=O)C(C#N)=C(NC(C)c1nccs1)c1cccnc1Cl (stereo not shown) [Compound 28]
13,3.63,CC(C)OC(=O)C(C#N)=C(NC(C)c1nc2ccccc2s1)c1cccnc1Cl (stereo not shown) [Compound 29]
14,2.67,CC(NC(=C(C#N)C(=O)OCC(F)(F)F)c1cccnc1Cl)c1nccs1 (stereo not shown) [Compound 30]

row,SMILES,Log P
1,CCOC(=O)C(C#N)=C(NC(C)c1nccs1)c1cccnc1Br (racemic) [Compound 1547],2.44
2,COC(=O)C(C#N)=C(NC(C)c1nc2ccccc2s1)c1cccnc1Cl (stereo not shown) [Compound 15],2.95
3,COC(=O)C(C#N)=C(NC(C)c1nccs1)c1cccnc1Br (stereo not shown) [Compound 21],2.12
4,COC(=O)C(C#N)=C(NC1CCSC1)c1cccnc1Cl (stereo not shown) [Compound 22],2.23
5,CC(C)OC(=O)C(C#N)=C(NC(C)c1nccs1)c1cccnc1Cl (stereo not shown) [Compound 23],2.7
6,CCOC(=O)C(C#N)=C(NC(C)c1nccs1)c1ccc(C)nc1Cl (stereo not shown) [Compound 24],2.62
